Reference: patent US9815835B2, “Substituted polycyclic carbamolypyridone derivative” (priority 2009, dated 2017)

tested on: influenza virus; assay: microbe, parasite or virus in culture; assay type: cell-based, influenza virus (MDBK or MDCK cells); details: unidentified influenza virus, 72 h, read-out: CPE EC50

With `COCCCC1N(C(C)C)C(=O)c2c(O)c(=O)ccn2N1C1c2cccc(F)c2CCc2c(F)cccc21` (stereo not drawn) [Example 523] the EC50 was 14 nM.

same assay, conditions: unidentified influenza virus, 72 h, read-out: CPE EC50, effective concentration to achieve 50% CPE inhibition, 3 days incubation, WST-8

In order of falling EC50:
1. CC(C)N1CN(Cc2ccc(Cl)c(Cl)c2)n2ccc(=O)c(O)c2C1=O [Example 199]  2720 nM
2. CN1CCC(CN2CN(C3c4ccccc4CSc4ccccc43)n3ccc(=O)c(O)c3C2=O)CC1 (stereo not drawn) [Example 292]  2230 nM
3. O=C(O)c1cn2c(c(O)c1=O)C(=O)N(Cc1ccc(F)cc1F)C[C@@H]2C(c1ccccc1)c1ccccc1 [Example 16]  632 nM
4. CC(C)=CCN1C[C@H](C(c2ccccc2)c2ccccc2)n2cc(C(=O)O)c(=O)c(O)c2C1=O [Example 182]  562 nM
5. O=C1c2c(O)c(=O)ccn2N(C2c3ccccc3CCc3ccccc32)CN1CC(O)CO (stereo not drawn) [Example 364]  515 nM
6. C[C@H](N1CN([C@H]2c3ccccc3CSc3ccc(Cl)cc32)n2ccc(=O)c(O)c2C1=O)C(F)(F)F [Example 475]  441 nM
7. CC(=O)N1CC[C@@H](N2CN(C3c4ccccc4CSc4ccccc43)n3ccc(=O)c(O)c3C2=O)C1 (stereo partly drawn) [Example 289]  419 nM
8. CS(=O)(=O)CCN1CN(C2c3ccccc3CCc3ccccc32)n2ccc(=O)c(O)c2C1=O [Example 269]  417 nM
9. CC(C)OCCN1C[C@H](C(c2ccccc2)c2ccccc2)n2cc(C(=O)O)c(=O)c(O)c2C1=O [Example 184]  403 nM
10. CCCN1C[C@H](C(c2ccccc2)c2ccccc2)n2cc(C(=O)O)c(=O)c(O)c2C1=O [Example 181]  349 nM
11. CCCC(C)N1C[C@H](C(c2ccccc2)c2ccccc2)n2cc(C(=O)O)c(=O)c(O)c2C1=O (stereo partly drawn) [Example 187]  282 nM
12. O=C(O)c1cn2c(c(O)c1=O)C(=O)N1CCCCN1C2C(c1ccccc1)c1ccccc1 (stereo not drawn) [Example 507]  197 nM
13. CC(C)N1CN(C2c3ccccc3CSc3ccc(Cl)cc32)n2ccc(=O)c(O)c2C1=O (stereo not drawn) [Example 328]  168 nM
14. CC(C)N1CN(C2c3ccccc3CSc3ccccc32)n2cc(C(=O)O)c(=O)c(O)c2C1=O (stereo not drawn) [Example 492]  160 nM
15. CCC(C)N1C[C@H](C(c2ccccc2)c2ccccc2)n2cc(C(=O)O)c(=O)c(O)c2C1=O (stereo partly drawn) [Example 186]  159 nM
16. CC(C)C[C@H](CO)N1CN(C2c3ccccc3CSc3ccccc32)n2ccc(=O)c(O)c2C1=O (stereo partly drawn) [Example 374]  154 nM
17. CCN1C(=O)c2c(O)c(=O)ccn2C(C2c3ccccc3CSc3ccccc32)N1CC (stereo not drawn) [Example 502]  142 nM
18. COCCN1CN(C2c3ccccc3COc3ccc(F)cc32)n2ccc(=O)c(O)c2C1=O (stereo not drawn) [Example 401]  133 nM
19. Cc1noc(CN2CN(C3c4ccccc4CCc4ccccc43)n3ccc(=O)c(O)c3C2=O)n1 [Example 270]  129 nM
20. CC(C)N1CN(C2c3cc(F)ccc3CCc3ccc(F)cc32)n2ccc(=O)c(O)c2C1=O [Example 279]  119 nM
21. CC(C)N1CN(C2c3ccccc3CCc3ccccc32)n2cc(C(=O)O)c(=O)c(O)c2C1=O [Example 491]  99 nM
22. O=C1c2c(O)c(=O)ccn2N(C2c3ccccc3CSc3c(Cl)cccc32)CN1CCO (stereo not drawn) [Example 382]  94 nM
23. CC(=O)OCCN1CN(C2c3ccccc3CCc3ccccc32)n2ccc(=O)c(O)c2C1=O [Example 276]  89 nM
24. CC(CN(C)C)N1CN(C2c3ccccc3CSc3c(Cl)cccc32)n2ccc(=O)c(O)c2C1=O (stereo not drawn) [Example 481]  86 nM
25. CC(CN(C)C)N1CN(C2c3ccccc3CSc3ccccc32)n2ccc(=O)c(O)c2C1=O (stereo not drawn) [Example 480]  84 nM
26. CN1CN(C2c3ccccc3CSc3c(F)cccc32)n2ccc(=O)c(O)c2C1=O (stereo not drawn) [Example 354]  83 nM
27. COCCN1CN(C2c3cc(F)ccc3COc3cc(F)ccc32)n2ccc(=O)c(O)c2C1=O (stereo not drawn) [Example 402]  81 nM
28. COCCN1CN(C2c3ccccc3COc3cc(F)ccc32)n2ccc(=O)c(O)c2C1=O (stereo not drawn) [Example 397]  77 nM
29. O=C1c2c(O)c(=O)ccn2N(C2c3ccccc3CCc3ccccc32)CN1CC(F)(F)F [Example 263]  75 nM
30. C[C@H](N1CN([C@H]2c3ccccc3CSc3ccc(F)cc32)n2ccc(=O)c(O)c2C1=O)C(F)(F)F [Example 461]  74 nM
31. CC(C)N1CN(C2c3ccccc3COc3ccccc32)n2ccc(=O)c(O)c2C1=O (stereo not drawn) [Example 391]  71 nM
32. C[C@@H](N1CN([C@H]2c3ccccc3CSc3ccc(Cl)cc32)n2ccc(=O)c(O)c2C1=O)C(F)(F)F [Example 455]  71 nM
33. CC(CO)N1CN(C2c3ccccc3CCc3ccccc32)n2ccc(=O)c(O)c2C1=O (stereo not drawn) [Example 362]  67 nM
34. CC(CN(C)C)N1CN(C2c3ccccc3CCc3ccccc32)n2ccc(=O)c(O)c2C1=O (stereo not drawn) [Example 479]  64 nM
35. COCCCN1CN(C2c3ccccc3CCc3ccccc32)n2ccc(=O)c(O)c2C1=O [Example 267]  63 nM
36. C[C@@H](N1CN([C@H]2c3ccc(C(F)(F)F)cc3CSc3ccccc32)n2ccc(=O)c(O)c2C1=O)C(F)(F)F [Example 432]  62 nM
37. CC(N1CN(C(c2ccccc2)c2ccccc2Cl)n2ccc(=O)c(O)c2C1=O)C(F)(F)F (stereo not drawn) [Example 242]  59 nM
38. C[C@H](N1CN([C@H]2c3ccccc3CSc3c(F)cccc32)n2ccc(=O)c(O)c2C1=O)C(F)(F)F [Example 453]  49 nM
39. CC(=O)OCC(C)N1CN(C2c3ccccc3CCc3ccccc32)n2ccc(=O)c(O)c2C1=O (stereo not drawn) [Example 261]  47 nM
40. C[C@@H](N1CN([C@H]2c3ccccc3COc3c(F)cccc32)n2ccc(=O)c(O)c2C1=O)C(F)(F)F [Example 425]  47 nM
41. O=C1c2c(O)c(=O)ccn2N(C2c3ccccc3CCc3ccccc32)CN1CCF [Example 262]  38 nM
42. CC(C)(C)N1CN(C2c3ccccc3CCc3ccccc32)n2ccc(=O)c(O)c2C1=O [Example 265]  36 nM
43. CC(C)(C)[C@H](CO)N1CN(C2c3ccccc3CSc3ccccc32)n2ccc(=O)c(O)c2C1=O (stereo partly drawn) [Example 381]  34 nM
44. O=C1c2c(O)c(=O)ccn2N(C2c3ccccc3CSc3ccccc32)CN1CCOC(F)(F)F (stereo not drawn) [Example 297]  33 nM
45. CC(C)N1CN(C2c3ccccc3CCc3c(Cl)cccc32)n2ccc(=O)c(O)c2C1=O (stereo not drawn) [Example 282]  29 nM
46. CCOCCN1CN(C2c3ccccc3CSc3ccccc32)n2ccc(=O)c(O)c2C1=O (stereo not drawn) [Example 312]  29 nM
47. CC(C)N1CN(C2c3ccc(Cl)cc3COc3ccccc32)n2ccc(=O)c(O)c2C1=O (stereo not drawn) [Example 409]  29 nM
48. C[C@@H](N1CN([C@H]2c3ccccc3SCc3cccc(Cl)c32)n2ccc(=O)c(O)c2C1=O)C(F)(F)F [Example 430]  29 nM
49. COCCN1CN(C2c3ccccc3CCc3ccccc32)n2ccc(=O)c(O)c2C1=O [Example 258]  28 nM
50. COCC(COC)N1CN(C2c3cc(F)ccc3CSc3ccc(F)cc32)n2ccc(=O)c(O)c2C1=O (stereo not drawn) [Example 340]  27 nM
51. CC(CN1CCOCC1)N1CN(C2c3ccccc3CSc3ccccc32)n2ccc(=O)c(O)c2C1=O (stereo not drawn) [Example 483]  27 nM
52. CC(N1CN(C2c3ccccc3CSc3c(F)cccc32)n2ccc(=O)c(O)c2C1=O)C(F)(F)F (stereo not drawn) [Example 342]  26 nM
53. CC(=O)OCCN1CN(C2c3ccccc3CSc3ccccc32)n2ccc(=O)c(O)c2C1=O (stereo not drawn) [Example 325]  25 nM
54. CCCC1N(C(C)C)C(=O)c2c(O)c(=O)ccn2N1C1c2ccccc2CCc2ccccc21 (stereo not drawn) [Example 518]  24 nM
55. CC(C)C[C@@H](CO)N1CN(C2c3ccccc3CSc3ccccc32)n2ccc(=O)c(O)c2C1=O (stereo partly drawn) [Example 377]  22 nM
56. CC(N1CN(C2c3ccccc3COc3c(F)cccc32)n2ccc(=O)c(O)c2C1=O)C(F)(F)F (stereo not drawn) [Example 406]  22 nM
57. C[C@H](N1CN([C@@H]2c3ccccc3CSc3ccccc32)n2ccc(=O)c(O)c2C1=O)C(F)(F)F [Example 415]  22 nM
58. O=C1c2c(O)c(=O)ccn2N(C2c3ccccc3CSc3ccccc32)CN1CC(F)(F)F (stereo not drawn) [Example 306]  21 nM
59. CC(C)N1CN(C2c3ccc(F)cc3CCc3cc(F)ccc32)n2ccc(=O)c(O)c2C1=O [Example 284]  19 nM
60. CC(C)N1CN(C2c3ccccc3CSc3c(F)cccc32)n2ccc(=O)c(O)c2C1=O (stereo not drawn) [Example 351]  19 nM
61. C[C@H](N1CN([C@H]2c3ccccc3CSc3ccccc32)n2ccc(=O)c(O)c2C1=O)C(F)(F)F [Example 416]  19 nM
62. CC(C)(C)[C@@H](CO)N1CN(C2c3ccccc3CSc3ccccc32)n2ccc(=O)c(O)c2C1=O (stereo partly drawn) [Example 380]  18 nM
63. CSCC1N(C(C)C)C(=O)c2c(O)c(=O)ccn2N1C1c2ccccc2CCc2ccccc21 (stereo not drawn) [Example 514]  18 nM
64. CC(C)N1CN(C2c3ccccc3CSc3ccccc32)n2ccc(=O)c(O)c2C1=O (stereo not drawn) [Example 301]  17 nM
65. COCC(COC)N1CN(C2c3ccccc3CSc3ccccc32)n2ccc(=O)c(O)c2C1=O (stereo not drawn) [Example 318]  15 nM
66. C[C@@H](N1CN(C2c3ccccc3COc3ccc(F)cc32)n2ccc(=O)c(O)c2C1=O)C(F)(F)F (stereo partly drawn) [Example 410]  14 nM
67. C[C@@H](N1CN([C@H]2c3ccccc3CSc3c(Cl)cccc32)n2ccc(=O)c(O)c2C1=O)C(F)(F)F [Example 450]  14 nM
68. C[C@@H](N1CN([C@H]2c3ccccc3CSc3cc(F)ccc32)n2ccc(=O)c(O)c2C1=O)C(F)(F)F [Example 458]  14 nM
69. COCCCC1N(C(C)C)C(=O)c2c(O)c(=O)ccn2N1C1c2ccccc2CCc2ccccc21 (stereo not drawn) [Example 522]  14 nM
70. O=C1c2c(O)c(=O)ccn2N(C2c3ccccc3CSc3ccccc32)CN1CCCF (stereo not drawn) [Example 298]  12 nM
71. C[C@H](N1CN([C@@H]2c3ccccc3SCc3cccc(Cl)c32)n2ccc(=O)c(O)c2C1=O)C(F)(F)F [Example 431]  11 nM
72. C[C@@H](N1CN([C@H]2c3cc(F)ccc3CSc3ccc(F)cc32)n2ccc(=O)c(O)c2C1=O)C(F)(F)F [Example 462]  11 nM
73. C[C@@H](N1CN([C@H]2c3ccccc3CSc3ccccc32)n2ccc(=O)c(O)c2C1=O)C(F)(F)F [Example 413]  5 nM
74. C[C@@H](N1CN([C@@H]2c3cc(Cl)ccc3CSc3ccccc32)n2ccc(=O)c(O)c2C1=O)C(F)(F)F [Example 443]  4 nM
